From PubChem BioAssay (NCI)
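Five compound concentrations were applied to cells in 96-well plates for 48 hours; endpoints were derived by simple linear interpolation of the resulting dose-response curve. The concentration for 50% growth inhibition is given as GI50. Definition used: TGI = concentration required for complete inhibition of growth.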

What was measured:
Assay in all cases: NCI anticancer screen, dose series, 48 h
IGROV1 ovarian = test system: IGROV1 ovarian
OVCAR-5 ovarian = test system: OVCAR-5 ovarian
SK-MEL-2 melanoma = test system: SK-MEL-2 melanoma
RPMI-8226 leukemia = test system: RPMI-8226 leukemia
TK-10 renal = test system: TK-10 renal
RXF 393 renal = test system: RXF 393 renal
EKVX NSCLC = test system: EKVX NSCLC
SNB-75 CNS = test system: SNB-75 CNS
DU-145 prostate = test system: DU-145 prostate
MDA-MB-435 = test system: MDA-MB-435

Compound | TGI (IGROV1 ovarian) | TGI (OVCAR-5 ovarian) | TGI (SK-MEL-2 melanoma) | TGI (RPMI-8226 leukemia) | TGI (TK-10 renal) | TGI (RXF 393 renal) | TGI (EKVX NSCLC) | TGI (SNB-75 CNS) | TGI (DU-145 prostate) | TGI (MDA-MB-435) | GI50 (IGROV1 ovarian) | GI50 (OVCAR-5 ovarian) | GI50 (SK-MEL-2 melanoma) | GI50 (RPMI-8226 leukemia) | GI50 (DU-145 prostate) | GI50 (TK-10 renal) | GI50 (MDA-MB-435) | GI50 (EKVX NSCLC) | GI50 (SNB-75 CNS)
Nc1c(-c2nc3ccccc3[nH]2)sc(=S)n1-c1ccc(Cl)cc1 | 73.2 µM | > 100 µM | 63.8 µM | 90.2 µM | 56.1 µM | 41.3 µM | 67.4 µM | 47.6 µM | – | – | – | – | – | – | – | – | – | – | –
NS(=O)(=O)c1ccc(NC(=O)COC(=O)c2cccc3c(=O)c4ccccc4[nH]c23)cc1 | 61.5 µM | > 90 µM | 69.8 µM | > 100 µM | 77.1 µM | 42.3 µM | > 100 µM | 38.5 µM | – | – | – | – | – | – | – | – | – | – | –
CC(=O)O[C@H]1C=CC23OC(=O)[C@]1(C)[C@H]2[C@H](C(=O)O)C12CC(=O)[C@@](CO)(CC[C@H]13)C2 | > 100 µM | > 100 µM | > 100 µM | > 100 µM | > 100 µM | > 100 µM | > 100 µM | – | – | – | – | – | – | – | – | – | – | – | –
CC(C)(C)OC(=O)N1N=NC2C3OC(CC3=O)C21 (stereo not given) | > 100 µM | > 100 µM | > 100 µM | > 100 µM | > 100 µM | – | > 100 µM | > 100 µM | – | – | – | – | – | – | – | – | – | – | –
NC(=O)N/N=C(/c1nc2ccc([N+](=O)[O-])cc2[nH]c1=O)C(O)c1ccco1 (stereo not given) | > 100 µM | > 100 µM | – | > 100 µM | > 100 µM | > 100 µM | – | > 100 µM | – | – | – | – | – | – | – | – | – | – | –
Cc1cc(O)c(C(c2ccncc2)c2c(O)cc(C)[nH]c2=O)c(=O)[nH]1 | > 100 µM | > 100 µM | – | > 100 µM | > 100 µM | > 100 µM | > 100 µM | – | > 100 µM | > 100 µM | – | – | – | – | – | – | – | – | –
CC(=O)n1ccc2c(Cl)ncnc21 | > 100 µM | – | > 100 µM | > 100 µM | > 100 µM | > 100 µM | > 100 µM | > 100 µM | – | – | – | – | – | – | – | – | – | – | –
O=c1c2c3c(sc2n2c(-c4ccc(Br)cc4)nnc2n1Cc1ccccc1)CCCC3 | 26.9 µM | 24.8 µM | 21.2 µM | 25.4 µM | 21.8 µM | – | 23.4 µM | 22.1 µM | 22.9 µM | 35.3 µM | 11.7 µM | 9.1 µM | 8.58 µM | 3.85 µM | 9.72 µM | 7.94 µM | 14.2 µM | 10.6 µM | 7.99 µM
CC(C)N(C(C)C)P(OCCC#N)OC1CC(n2cnc3c(=O)[nH]cnc32)OC1COC(=O)NCCCCCCNC(=O)OC(C)(C)c1ccc(-c2ccccc2)cc1 (stereo not given) | 38.4 µM | > 100 µM | > 100 µM | 76.1 µM | > 100 µM | 74.3 µM | > 100 µM | 53.7 µM | – | – | – | – | – | – | – | – | – | – | –
O=C1NC2(C=Cc3c(ccc4ccccc34)O2)Oc2ccccc21 (stereo not given) | > 100 µM | > 100 µM | 56.5 µM | 47.6 µM | > 100 µM | 43.3 µM | 82.3 µM | 61.4 µM | – | – | – | – | – | – | – | – | – | – | –
Cc1ccc(NC(=O)CCC(=O)C(C#N)c2ccccc2)cc1C (stereo not given) | > 100 µM | > 100 µM | > 100 µM | > 100 µM | > 100 µM | – | > 100 µM | – | – | – | – | – | – | – | – | – | – | – | –
CCOC(=O)NC(=O)c1c[nH]c(=O)[nH]c1=O | > 100 µM | > 100 µM | > 100 µM | > 100 µM | > 100 µM | – | > 100 µM | > 100 µM | – | – | – | – | – | – | – | – | – | – | –
C[n+]1c(N)n(C(=O)OCc2ccccc2)c(=O)c2c1ncn2C(=O)OCc1ccccc1 | > 100 µM | > 100 µM | > 100 µM | > 100 µM | > 100 µM | – | > 100 µM | 65.9 µM | – | – | – | – | – | – | – | – | – | – | –
